Reference: US20250263436A1, “BROAD-SPECTRUM ANTIVIRAL DRUG FOR ENTEROVIRUS, AND APPLICATION” (WUHAN INSTITUTE OF VIROLOGY, CHINESE ACADEMY OF SCIENCES, priority 2020, published 2025)
“And” between values parts separate entries of the source, which are not always exact repeats. Equal entries are not always repeated.

How the values were obtained:
Type in all cases: cell-based
[1] = Toxicity assay in RD cells (CCK-8); details: human, RD cells, 24 h
Procedure: (§1) (1) Different cells were plated in a 96-well plate at 100 μL per well.
(§2) (2) When the cells grew to a confluence of 70%-80%, the DMEM medium containing 10% serum was replaced with a DMEM medium containing 2% serum, and a certain concentration gradient of polypeptide RQ was added, so that the final concentrations of the polypeptide in the wells were 0.073242 μM, 0.146484 μM, 0.292969 μM, 0.585938 μM, 1.171875 μM, 2.34375 μM, 4.6875 μM, 9.375 μM, 18.75 μM, 37.5 μM, 75 μM, 150 μM, and 300 μM, respectively.
(§3) (3) The samples were collected 24 h after the addition of the polypeptide, and then 10 μL of live cell detection reagent CCK-8 was added to each well and mixed well.
(§4) (4) The plate was placed at 37° C. for 2 h.
(§5) (5) The absorbance value at OD450 was detected by a microplate reader.
(§6) (1) RD cells were plated in a 96-well plate at 100 μL per well.
(§7) (2) When the cells grew to a confluence of 70%-80%, the DMEM medium containing 10% serum was replaced with a DMEM medium containing 2% serum, and B-RQ was added so that the final concentrations in the wells were 0.46 μM, 2.34 μM, 4.68 μM, 9.37 μM, 18.75 μM, 37.5 μM, 75 μM, and 150 μM.

RD cells = test: Toxicity assay in RD cells (CCK-8); details: 24 h
Procedure: as §1, §2, §3, §4, §5, §6, §7

CVA16 = test: Inhibition of CVA16 in RD cells (viral RNA, qRT-PCR); details: anti-CVA16 in RD cells
Procedure: (1) RD cells were plated in a 24-well plate.
(2) When the cells grew to a confluence of 70%-80%, the DMEM medium containing 10% serum was replaced with a DMEM medium containing 2% serum (the DMEM medium containing 2% serum was added in each well at an amount of 0.5 mL), and 5 μL of CVA16 virus of 1×10^6 PFU/mL was added to each well.
(3) After 1 h, different polypeptides with final concentrations of 0.3125 μM, 0.625 μM, 1.25 μM, 2.5 μM, and 5 μM were added respectively. The group without polypeptide added was used as a control.
(4) The samples were collected 24 h after the infection of CVA16 virus, and RNA was extracted with the total RNA extraction kit.
(5) The supernatant was discarded, then 350 μL of TRK lysate was added to each well, and the plate was put on a shaker for 5 min.
(6) 350 μL of 70% ethanol (DEPC) was added to each well, and then the plate was put on a shaker for 5 min.
(7) The solution in each well was transferred to a RNA extraction column for 1 min of centrifugation at 12000 g.
(8) The solution obtained in the recovery tube was reloaded on the column again for 1 min of centrifugation at 12000 g.
(9) RNA washing buffer 1 was added in the column for 30 s of centrifugation at 12000 g. […]
(14) 2 μL of RNA sample was subjected to a fluorescence quantitative experiment using the one step qRT-PCR kit.

CC[C@H](C)[C@H](NC(=O)[C@H](C)NC(=O)[C@H](CO)NC(=O)[C@H](CCCNC(=N)N)NC(=O)[C@H](CC(N)=O)NC(=O)[C@H](CC(N)=O)NC(=O)[C@H](Cc1ccc(O)cc1)NC(=O)[C@H](CCC(=O)O)NC(=O)[C@H](CCCNC(=N)N)NC(=O)CNC(=O)[C@H](CO)NC(=O)CNC(=O)[C@H](CCCNC(=N)N)NC(=O)[C@H](CCCNC(=N)N)NC(=O)[C@H](CCCNC(=N)N)NC(=O)[C@H](CCC(N)=O)NC(=O)[C@H](CCCNC(=N)N)NC(=O)[C@H](CCCNC(=N)N)NC(=O)[C@H](CCCCN)NC(=O)[C@H](CCCCN)NC(=O)[C@H](CCCNC(=N)N)NC(=O)CNC(=O)[C@@H](N)Cc1ccc(O)cc1)C(=O)NCC(=O)N[C@@H](CC(N)=O)C(=O)N[C@H](C(=O)N[C@H](C(=O)N[C@@H](CCC(=O)O)C(=O)N[C@@H](C)C(=O)N[C@@H](CC(C)C)C(=O)N[C@@H](Cc1ccccc1)C(=O)N[C@@H](CCC(N)=O)C(=O)O)[C@@H](C)CC)[C@@H](C)O [RQ]
viability at 24 h, 0.073242 µM ([1]; RQ 0.073242 μM, read-out: Viability of RD cell (%)): 99.8% | viability at 24 h, 0.146484 µM ([1]; RQ 0.146484 μM, read-out: Viability of RD cell (%)): 99.2% | viability at 24 h, 0.292969 µM ([1]; RQ 0.292969 μM, read-out: Viability of RD cell (%)): 101% | viability at 24 h, 0.585938 µM ([1]; RQ 0.585938 μM, read-out: Viability of RD cell (%)): 98.9% | viability at 24 h, 1.17188 µM ([1]; RQ 1.171875 μM, read-out: Viability of RD cell (%)): 99.6% | viability at 24 h, 2.34375 µM ([1]; RQ 2.34375 μM, read-out: Viability of RD cell (%)): 98.8% | viability at 24 h, 4.6875 µM ([1]; RQ 4.6875 μM, read-out: Viability of RD cell (%)): 98.3% | viability at 24 h, 9.375 µM ([1]; RQ 9.375 μM, read-out: Viability of RD cell (%)): 98.4% | viability at 24 h, 18.75 µM ([1]; RQ 18.75 μM, read-out: Viability of RD cell (%)): 101% | viability at 24 h, 37.5 µM ([1]; RQ 37.5 μM, read-out: Viability of RD cell (%)): 101% | viability at 24 h, 75 µM ([1]; RQ 75 μM, read-out: Viability of RD cell (%)): 102% | viability at 24 h, 150 µM ([1]; RQ 150 μM, read-out: Viability of RD cell (%)): 8.73% | CC50 at 24 h ([1]; CCK-8): > 150000 nM | Viability of RD cell (%) (RD cells; RQ 0.073242 μM): 100.3321% and 99.8893% | Viability of RD cell (%) (RD cells; RQ 0.146484 μM): 102.3247% and 99.94% | Viability of RD cell (%) (RD cells; RQ 0.292969 μM): 100.2214% and 99.17% | Viability of RD cell (%) (RD cells; RQ 0.585938 μM): 103.5978% and 102.7122% | Viability of RD cell (%) (RD cells; RQ 1.171875 μM): 99% and 99.23% | Viability of RD cell (%) (RD cells; RQ 2.34375 μM): 98.51% | Viability of RD cell (%) (RD cells; RQ 4.6875 μM): 99.45% and 100.8856% | Viability of RD cell (%) (RD cells; RQ 9.375 μM): 100.7196% and 102.6568% | Viability of RD cell (%) (RD cells; RQ 18.75 μM): 103.4317% and 102.4354% | Viability of RD cell (%) (RD cells; RQ 37.5 μM): 103.9852% and 103.5424% | Viability of RD cell (%) (RD cells; RQ 75 μM): 103.5978% and 102.9889% | Viability of RD cell (%) (RD cells; RQ 150 μM): 8.782% and 8.007% | IC50 (CVA16): 2160 nM
